Entries after “also recorded” stand apart in the source; their conditions may differ. Like-named read-outs stand apart in the source and are kept apart here. Positions of bridges follow the written chain, without caps; N, C: chain ends. Residues, ends and D or L forms follow the SMILES beside them.
What was measured:
[1] = target: binding of Factor VII to tissue factor (Homo sapiens, UniProt P13726); conditions: reported in PCT/GB94/01315; cited from earlier work
[2] = target: T1, factor VIIa/tissue factor (Homo sapiens, UniProt P13726); test: two-stage chromogenic assay of factor VIIa/tissue factor-catalysed factor X activation; assay type: biochemical
T1 construct: purchased American Diagnostica, Inc. (TF); Novo Nordisk A/S (FVIIa)
T1 sequence (P13726 33-295): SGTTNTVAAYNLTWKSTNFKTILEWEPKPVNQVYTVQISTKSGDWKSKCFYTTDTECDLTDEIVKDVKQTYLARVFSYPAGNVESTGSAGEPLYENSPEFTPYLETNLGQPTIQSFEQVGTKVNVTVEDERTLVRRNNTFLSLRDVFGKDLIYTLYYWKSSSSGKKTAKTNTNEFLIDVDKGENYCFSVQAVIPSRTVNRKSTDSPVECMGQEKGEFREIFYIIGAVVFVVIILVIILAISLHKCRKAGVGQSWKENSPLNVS
Experimental: This was determined using a two-stage chromogenic biochemical in vitro assay, essentially as described (A. Kumar et al., 1991, J. Biol. Chem., 266, 915). In short: peptides were pre-incubated with lipidated TF (5 pM; from American Diagnostica, Inc., Greenwich, Conn., USA) and calcium (5 mM) for 10 minutes prior to addition of FVIIa (5 pM; from Novo Nordisk A/S, Gentofte, Denmark) and FX (20 nM; from Enzyme Research Laboratory, South Bend, Ind., USA). Reactions were terminated by addition of EDTA (50 mM) and formation of FXa was monitored using the chromogenic FXa substrate S2765 (0.4 mM; from Chromogenix, Mondal, Sweden) and measuring the absorbance increase at 405 nm in a microtitre plate reader. The concentration for half-maximal inhibition (IC50) was determined from dose-inhibition curves.

[3] = system: tissue factor-dependent plasma coagulation; test: one-stage in vitro tissue factor-dependent plasma coagulation assay; assay type: biochemical, human; conditions: end-capped peptide tested up to 1.5 mM
Experimental: A one-stage in vitro coagulation assay was used as follows: peptides dissolved in 3-[N-morpholino]propane-sulphonic acid buffer (100 mM, pH 7.4) and NaCl (100 mM) were premixed with diluted (1:50 in saline) lipidated TF (Thromborel S®, Behringwerke AG, Marburg, Germany) and CaCl2 (5 mM final concentration) and the solutions were kept at 37° C. for 2 minutes. The coagulation reaction was initiated by addition of a thawed aliquot of frozen platelet-free human plasma pool (37° C.). The clotting-time for four replicate incubations were simultaneously determined automatically in an electromagnetic coagulometer (Thrombotrack 4, Nycomed Pharma AS, Oslo, Norway). The mean value for the clotting times determined from the replicate samples were converted to arbitrary TF units by a log-log calibration curve generated with Thromborel.

[4] = solubility in physiological media; assay type: physicochemical
[5] = system: TF-dependent arterial thrombogenesis; test: human ex vivo model of TF-dependent arterial thrombogenesis; conditions: around 1 mM final peptide/plasma concentration
Experimental: Apart from the ability of the peptide disulphide-cyclo-[H-Cys-Glu-Gln-Tyr-Cys-OH] to inhibit the complex formation between FVIIa and TF in various biochemical assays, we have also found this peptide to be efficacious in a clinically relevant ex vivo model of TF/FVII-dependent arterial human thrombogenesis.
The efficacy of peptides was tested in a human ex vivo model of TF-dependent arterial thrombogenesis, essentially as described (K. S. Sakariassen et al., 1990, Arteriosclerosis, 10, 276; U. .O slashed.rvim et al., 1995, Arterioscl. Thromb. Vasc. Biol., in press). Human non-anticoagulated blood was drawn directly from an antecubital vein and mixed with peptide solution in a heparin-coated mixing device situated proximally to a perfusion chamber which contained a TF-coated coverslip (Thromborel S®). Blood flow was kept at 10 mL/min for 4 minutes, producing a shear rate of 650 s^-1, typical for small arteries.

[6] = mean±standard deviation, TF 5 pM, FVIIa 5 pM, FX 20 nM, read-out: IC50 (concentration for half-maximal inhibition of FXa formation)
[7] = summary values in the description, read-out: IC50 in the two-stage chromogenic assay of A. Kumar et al.

Sequence of binding of Factor VII to tissue factor (P13726 33-295): as above

| Molecule | inhibition of binding of Factor VII to tissue factor [1] | IC50 [2, 6] [µM] | fold lower potency versus disulphide-cyclo-[H-Cys-Glu-Gln-Tyr-Cys-OH] ([2]; same assay) [fold] | IC50 [2, 7] [µM] | effect on clotting time [3] | solubility properties in physiological media [4] | highest testable concentration due to solubility ([4]; coagulation assay buffer) | effect on thrombus formation [5] |
| --- | --- | --- | --- | --- | --- | --- | --- | --- |
| CC(=O)N[C@H]1CSSC[C@@H](C(N)=O)NC(=O)[C@H](Cc2ccc(O)cc2)NC(=O)[C@H](CCC(N)=O)NC(=O)[C@H](CCC(=O)O)NC1=O [disulphide-cyclo-[Ac-Cys-Glu-Gln-Tyr-Cys-NH2 ]] (Ac-CEQYC-NH2; disulfide 1-5) | negligible | 265 ± 174 | 26 | ~200 | without any effect | poor solubility properties | ca. 1.5 mM |  |
| H-YADKIEDTKL-OH [H-Tyr-Ala-Asp-Lys-Ile-Glu-Asp-Thr-Lys-Leu-OH] |  |  |  |  |  |  |  | no effect |
| NC(=O)CC[C@@H]1NC(=O)[C@H](CCC(=O)O)NC(=O)[C@@H](N)CSSC[C@@H](C(=O)O)NC(=O)[C@H](Cc2ccc(O)cc2)NC1=O [disulphide-cyclo-[H-Cys-Glu-Gln-Tyr-Cys-OH]] (H-CEQYC-OH; disulfide 1-5) |  | 10.1 ± 5 |  | 10 |  | superior solubility properties; also recorded: freely soluble |  |  |

From US5962408A, “Disulphide-cyclo-[H-Cys-Glu-Gln-Tyr-Cys-OH], and its use in blood-clotting disorders” (Nycomed Imaging AS, priority 1994, dated 1999)
